The results in this text go back to US20110052732A1, “MINERAL ABSORPTION ACCELERATOR AND IRON DEFICIENCY ANEMIA IMPROVER OF FOOD COMPOSITION” (FUJIFILM Corporation, priority 2008, published 2011).

This assay deals with SD rats. Briefly: Mineral balance test in rats (absorption rate, internal retention rate, serum concentration). The note with it: oral aqueous solution 2.0 g/day; for Absorption rate of calcium / Absorption rate of iron / Absorption rate of magnesium / Absorption rate of zinc / Internal retention rate of calcium / Internal retention rate of iron / Internal retention rate of magnesium / Internal retention rate of zinc: 14 days, then urine and feces collected for 4 days. Format: in vivo, rat. The source says: SD rats (males) of 4 weeks of age after birth were preliminarily reared for 1 week and then divided into a control group and 6 sample ingestion groups, each group consisting of 6 animals, at random based on body weight. In the rats of salacinol administration group, 0.1% salacinol aqueous solution was orally administered at a dose of 2.0 g/day per unit weight of rat. In the rats of voglibose administration group, 0.4% voglibose aqueous solution was orally administered at a dose of 2.0 g/day per unit weight of rat. In the rats of acarbose administration group, 0.4% acarbose aqueous solution was orally administered at a dose of 2.0 g/day per unit weight of rat. In the rats of Salacia extract powder administration group, 1% Salacia extract powder aqueous solution was orally administered at a dose of 2.0 g/day per unit weight of rat. In the rats of mulberry extract powder administration group, 1% mulberry extract powder aqueous solution was orally administered at a dose of 2.0 g/day per unit weight of rat. In the rats of Salacia extract powder+green tea extract administration group, 1% Salacia extract powder+1% green tea extract mixed aqueous solution was orally administered at a dose of 2.0 g/day per unit weight of rat. In the rats of control group, water was orally administered at a dose of 2.0 g/day per unit weight of rat. Each rat was reared with a solid feed (CRF-1 mfd. by Oriental Yeast) for 14 days and then transferred into a cage for metabolism analysis, and urine and feces were collected for a period of 4 days to measure concentrations of iron, calcium, magnesium and zinc. Detection of minerals from feces was carried out using inductively coupled plasma emission spectrometry, and those from urine and serum using atomic absorption method. Absorption rate and internal holding rate of each mineral were calculated using the following formulae. Absorbed amount=ingested amount−discharged amount into feces Absorption rate (%)=absorbed amount÷ingested amount×100 Internally retained amount=absorbed amount−discharged amount into urine Internal retention rate (%)=internally retained amount÷ingested amount×100 Results of the absorption rate and internal retention rate of minerals and concentration of mineral in serum by the mineral balance test are respectively shown in Tables 3 to 5.

Regarding `C[C@H]1O[C@H](O[C@H]2[C@H](O)[C@@H](O)[C@@H](O[C@H]3[C@H](O)[C@@H](O)C(O)O[C@@H]3CO)O[C@@H]2CO)[C@H](O)[C@@H](O)[C@@H]1N[C@H]1C=C(CO)[C@@H](O)[C@H](O)[C@H]1O` (stereo partly drawn) [Acarbose, acarbose], the “Absorption rate of calcium” value was 32.8%, the “Absorption rate of iron” value is 37.5%, the “Absorption rate of magnesium” value is 20.8% and the “Absorption rate of zinc” value is reported as 29.3%. Further, the “Internal retention rate of calcium” value came to 31.5%, the “Internal retention rate of iron” value is on record as 32.8%, the “Internal retention rate of magnesium” value is listed as 23.1% and the “Internal retention rate of zinc” value was 18.4%. Besides, the “Concentration of calcium in serum” value stood at 10.9 mg/dL, the “Concentration of iron in serum” value worked out at 289.3 µg/dL, the “Concentration of magnesium in serum” value came to 2.01 mg/dL and the “Concentration of zinc in serum” value was determined as 121.3 µg/dL.
With `O=S(=O)([O-])O[C@@H](CO)[C@H](O)C[S@+]1C[C@@H](O)[C@H](O)[C@H]1CO` [Salacinol], the “Absorption rate of calcium” value stood at 33.2%, the “Absorption rate of iron” value came out at 38.5%, the “Absorption rate of magnesium” value came to 20.5% and the “Absorption rate of zinc” value was found to be 30.1%. Moreover, the “Internal retention rate of calcium” value is recorded as 32.3%, the “Internal retention rate of iron” value worked out at 34.2%, the “Internal retention rate of magnesium” value is 23.6% and the “Internal retention rate of zinc” value is recorded as 19.5%. The “Concentration of calcium in serum” value is 11.8 mg/dL, the “Concentration of iron in serum” value is 298.6 µg/dL, the “Concentration of magnesium in serum” value came to 2.06 mg/dL and the “Concentration of zinc in serum” value came out at 122.7 µg/dL.
On to `OCC(CO)N[C@H]1C[C@](O)(CO)[C@@H](O)[C@H](O)[C@H]1O` [Voglibose, voglibose], for which the “Absorption rate of calcium” value is reported as 32.5%, the “Absorption rate of iron” value was 37.8%, the “Absorption rate of magnesium” value is recorded as 21.2% and the “Absorption rate of zinc” value came out at 29.8%. Further, the “Internal retention rate of calcium” value was 32.1%, the “Internal retention rate of iron” value was 33.9%, the “Internal retention rate of magnesium” value stood at 24.0% and the “Internal retention rate of zinc” value turned out to be 18.6%. Also, the “Concentration of calcium in serum” value was 10.9 mg/dL, the “Concentration of iron in serum” value worked out at 292.5 µg/dL, the “Concentration of magnesium in serum” value was 2.04 mg/dL and the “Concentration of zinc in serum” value worked out at 120.2 µg/dL.
